# From patent US6407116B1, “Nitrogenous fused-ring compounds, process for the preparation of the same, and drugs” (Takeda Chemical Industries, Inc., priority 1997, dated 2002)
# Counter-ions that a name gives are not always drawn.
# How the values were obtained:
# [1] = tested on: guinea-pig eosinophils; test: Chemotaxis inhibition assay: LTB4-induced chemotaxis in guinea-pig eosinophils; assay type: cell-based; details: test substance 1×10^−5 M, LTB4 10^−8 M, 2 hours; for inhibition at 10 µM: Cavia porcellus, Eosinophil
# Experimental: 1) Guinea-pig Eosinophil Preparation
# Male Hartley guinea-pigs received 2 ml of equine serum (Bio-Whittaker, Inc) intraperitoneally once a week for successive 8 weeks. 48 hours after the last administration, 75 ml of physiological saline was injected into the peritoneal cavity, and the fluid was recovered and centrifuged at 400 G for 5 minutes. […] Erythrocytes in the isolated cell pellet, if any, were removed by hypotonic treatment (suspended in water for 30 seconds).
# 2) Chemotaxis Inhibition Assay
# 600 μl of LTB4 suspended in Hanks-Hepes-HSA (final concentration of 10^−8 M, Cascade Biochemical Ltd.) was placed in the lower compartment of a 24-well plate and kept at 37° C. for 30 minutes in a CO2 gas incubator. After mounting a Chemotaxicell (polycarbonate membrane, pore size 3 μm, thickness 10 μm), which served as an upper compartment, on the 24-well plate described above, 200 μl of eosinophil suspension (5×10^6 cells/ml), which had been incubated at 37° C. for 15 minutes in a thermostat chamber, was added to the upper compartment. After allowing to react for 2 hours in the CO2 gas incubator, the Chemotaxicell was removed, and 60 μl of 2% (w/v) EDTA solution in physiological saline was added to the lower compartment. After cooling on ice, the cells which underwent the chemotaxis into the lower compartment were counted using a blood cell counter (Coulter Counter (trade name)). In the procedure described above, the test substance was dissolved in N,N-dimethylformamide (DMF) and added to the upper and lower compartments at the final concentration of 10^−5 M.
# % Chemotaxis inhibition=[…] [Equation 2]
# The results are shown in [Table 2].
# [2] = tested on: histamine-induced dermal vascular hyperpermeability; test: Effect on histamine-induced dermal vascular hyperpermeability in guinea pigs; assay type: in vivo, guinea pig; details: 3 mg/kg oral administration, 1 hour before intradermal histamine, male Hartley guinea pigs; for inhibition in vivo at 3 mg/kg: Cavia porcellus
# Experimental: Effect on Histamine-induced Dermal Vascular Hyperpermeability in Guinea Pigs
# Male Hartley guinea pigs (weighing about 500 g) were used. […] After 30 minutes, the animal was hit on its head to make it unconscious, and cut at its neck to sacrifice by exsanguination. The dorsal skin was peeled and examined for the long and short diameters (mm) of each blue spot which were then multiplied to give a product, which was averaged to give a vascular permeability index. Each substance was suspended in 5% gum arabic solution, and given orally in the volume of 0.2 ml/100 g body weight 1 hour before histamine administration. Control animals received the same volume of 5% gum arabic solution. A % inhibition of this reaction was calculated according to [Equation 1].
# % Inhibition of histamine-induced dermal vascular hyperpermeability=100×(1-vascular permeability index in treatment group/vascular permeability index in control group) [Equation 1]
melting point [°C],Compound,inhibition at 10 µM [1] [%],other results
131 to 133,"Cl.O=c1[nH]c(=O)n(CCCN2CCC(OC(c3ccccc3)c3ccccc3)CC2)c2ncccc12 [Example 6, 2,4-Dioxo-1-[3-(4-diphenylmethoxypiperidino)propyl]-1,2,3,4-tetrahydropyrido[2,3-d]pyrimidine hydrochloride]",67,–
–,"O=c1nc2n(CCCCN3CCC(OC(c4ccccc4)c4ccccc4)CC3)ccnc-2c(=O)[nH]1 [Example 8, 2,4-Dioxo-8-[4-(4-diphenylmethoxypiperidino)butyl]-1,2,3,4-tetrahydropteridine]",–,Inhibition of histamine-induced dermal vascular hyperpermeability (%) [2]: 92%
209 to 210,"O=c1[nH]c(=O)n(CCCCN2CCC(OC(c3ccccc3)c3ccccc3)CC2)c2ccc(Cl)cc12 [Example 10, 6-Chloro-2,4-dioxo-1-[4-(4-diphenylmethoxypiperidino)butyl]-1,2,3,4-tetrahydroquinazoline]",50,–
180 to 182,"Cc1ccc2c(c1)c(=O)[nH]c(=O)n2CCCCN1CCC(OC(c2ccccc2)c2ccccc2)CC1 [Example 13, 2,4-Dioxo-1-[4-(4-diphenylmethoxypiperidino)butyl]-6-methyl-1,2,3,4-tetrahydroquinazoline]",66,–
–,"CCOC(=O)CCn1c(=O)c2ccccc2n(CCCCN2CCC(OC(c3ccccc3)c3ccccc3)CC2)c1=O [Example 17, Ethyl 2,4-dioxo-1-[4-(4-diphenylmethoxypiperidino)butyl]-1,2,3,4-tetrahydroquinazoline-3-propionate hydrochloride]",–,inhibition in vivo at 3 mg/kg [2]: 91%
229 to 231,"CC(C)(C)n1c(=O)c2ccccc2n(CCCCN2CCC(OC(c3ccccc3)c3ccccc3)CC2)c1=O.Cl [Example 22, 3-(1,1-Dimethylethyl)-2,4-dioxo-1-[4-(4-diphenylmethoxypiperidino)butyl]-1,2,3,4-tetrahydroquinazoline hydrochloride]",72,–
99 to 100,"COc1ccc(Cn2c(=O)c3ccccc3n(CCCCN3CCC(OC(c4ccccc4)c4ccccc4)CC3)c2=O)cc1 [Example 26, 2,4-Dioxo-1-[4-(4-diphenylmethoxypiperidino)butyl]-3-(4-methoxybenzyl)-1,2,3,4-tetrahydroquinazoline]",50,–
–,"CCOC(=O)C(C)(C)n1c(=O)c2cc(Cl)ccc2n(CCCCN2CCC(OC(c3ccccc3)c3ccccc3)CC2)c1=O [Example 35, Ethyl 2-[6-chloro-1-[4-(4-diphenylmethoxypiperidino)butyl]-2,4-dioxo-1,2,3,4-tetrahydroquinazolin-3-yl]isobutyrate hydrochloride]",–,inhibition in vivo at 3 mg/kg [2]: 87%
–,"O=C(O)CCCn1c(=O)c2ccccc2n(CCCCN2CCC(OC(c3ccccc3)c3ccccc3)CC2)c1=O [Example 53, 2,4-Dioxo-1-[4-(4-diphenylmethoxypiperidino)butyl]-1,2,3,4-tetrahydroquinazoline-3-butyric acid]",–,inhibition in vivo at 3 mg/kg [2]: 90%
145 to 150,"O=c1c2ccccc2n(CCCCN2CCC(OC(c3ccccc3)c3ccccc3)CC2)c(=O)n1CCO [Example 55, 2,4-Dioxo-1-[4-(4-diphenylmethoxypiperidino)butyl]-3-(2-hydroxyethyl)-1,2,3,4-tetrahydroquinazoline]",64,–
–,"O=c1c2ccccc2n(CCCCN2CCC(OC(c3ccccc3)c3ccccc3)CC2)c(=O)n1CCCc1ccccc1 [Example 58, 2,4-Dioxo-1-[4-(4-diphenylmethoxypiperidino)butyl]-3-(3-phenylpropyl)-1,2,3,4-tetrahydroquinazoline hydrochloride]",84,–
–,"COC(=O)COC(=O)Cn1c(=O)c2ccccc2n(CCCCN2CCC(OC(c3ccccc3)c3ccccc3)CC2)c1=O [Example 69, Methoxycarbonylmethyl 2,4-dioxo-1-[4-(4-diphenylmethoxypiperidino)butyl]-1,2,3,4-tetrahydroquinazoline-3-acetate hydrochloride]",96,–
–,"COC(=O)Cc1ccc2c(c1)c(=O)[nH]c(=O)n2CCCCN1CCC(OC(c2ccccc2)c2ccccc2)CC1 [Example 86, Methyl 2,4-dioxo-1-[4-(4-diphenylmethoxypiperidino)butyl]-1,2,3,4-tetrahydroquinazoline-6-acetate]",55,–
–,"CCOC(=O)CCCCn1c(=O)c2ccccc2n(CCCCN2CCC(OC(c3ccccc3)c3ccccc3)CC2)c1=O [Example 94, Ethyl 2,4-dioxo-1-[4-(4-diphenylmethoxypiperidino)butyl]-1,2,3,4-tetrahydroquinazoline-3-valerate hydrochloride]",–,inhibition in vivo at 3 mg/kg [2]: 83%
–,"COC(=O)C1(n2c(=O)c3ccccc3n(CCCCN3CCC(OC(c4ccccc4)c4ccccc4)CC3)c2=O)CCCCC1 [Example 97, Methyl 1-[2,4-dioxo-1-[4-(4-diphenylmethoxypiperidino)butyl]-1,2,3,4-tetrahydroquinazolin-3-yl]-1-cyclohexylcarboxylate hydrochloride]",62,–
155 to 157,"O=C(O)CCCCCn1c(=O)c2ccccc2n(CCCCN2CCC(OC(c3ccccc3)c3ccccc3)CC2)c1=O [Example 98, 2,4-Dioxo-1-[4-(4-diphenylmethoxypiperidino)butyl]-1,2,3,4-tetrahydroquinazoline-3-hexanoic acid]",50,–
–,"O=C(O)CCCCn1c(=O)c2cc(F)ccc2n(CCCCN2CCC(OC(c3ccccc3)c3ccccc3)CC2)c1=O [Example 101, 2,4-Dioxo-1-[4-(4-diphenylmethoxypiperidino)butyl]-6-fluoro-1,2,3,4-tetrahydroquinazoline-3-valeric acid]",50,–
–,"COC(=O)CNC(=O)Cn1c(=O)c2ccccc2n(CCCCN2CCC(OC(c3ccccc3)c3ccccc3)CC2)c1=O [Example 109, 2,4-Dioxo-1-[4-(4-diphenylmethoxypiperidino)butyl]-N-methoxycarbonylmethyl-1,2,3,4-tetrahydroquinazoline-3-acetamide hydrochloride]",55,–
170 to 172,"CCOC(=O)CN(C)C(=O)Cn1c(=O)c2ccccc2n(CCCCN2CCC(OC(c3ccccc3)c3ccccc3)CC2)c1=O.Cl [Example 110, 2,4-Dioxo-1-[4-(4-diphenylmethoxypiperidino)butyl]-N-ethoxycarbonylmethyl-N-methyl-1,2,3,4-tetrahydroquinazoline-3-acetamide hydrochloride]",122,–
123 to 124,"CCOC(=O)CCNC(=O)Cn1c(=O)c2ccccc2n(CCCCN2CCC(OC(c3ccccc3)c3ccccc3)CC2)c1=O.Cl [Example 111, 2,4-Dioxo-1-[4-(4-diphenylmethoxypiperidino)butyl]-N-(2-ethoxycarbonylethyl)-1,2,3,4-tetrahydroquinazoline-3-acetamide hydrochloride]",80,–
–,"CN(CC(=O)O)C(=O)Cn1c(=O)c2ccccc2n(CCCCN2CCC(OC(c3ccccc3)c3ccccc3)CC2)c1=O [Example 114, N-Carboxylmethyl-2,4-dioxo-1-[4-(4-diphenylmethoxypiperidino)butyl]-N-methyl-1,2,3,4-tetrahydroquinazoline-3-acetamide]",54,–
–,"O=C(O)CNC(=O)CCn1c(=O)c2ccccc2n(CCCCN2CCC(OC(c3ccccc3)c3ccccc3)CC2)c1=O [Example 116, N-Carboxylmethyl-2,4-dioxo-1-[4-(4-diphenylmethoxypiperidino)butyl]-1,2,3,4-tetrahydroquinazoline-3-propionamide hydrochloride]",52,–
–,"CC(C)(C(=O)O)n1c(=O)c2ccccc2n(CCCCN2CCC(OC(c3ccccc3)c3ccccc3)CC2)c1=O [Example 120, 2-[2,4-Dioxo-1-[4-(4-diphenylmethoxypiperidino)butyl]-1,2,3,4-tetrahydroquinazolin-3-yl]isobutyric acid hydrochloride]",–,inhibition in vivo at 3 mg/kg [2]: 86%
–,"N-(2-Carboxylethyl)-carboxylmethyl-2,4-dioxo-1-[4-(4-diphenylmethoxypiperidino)butyl]-N-methyl-1,2,3,4-tetrahydroquinazoline-3-acetamide [Example 115]",–,Inhibition (%) of LTB4-induced chemotaxis [1]: 56%
